Earlier results on eight compounds are cited in patent publication US20110212461A1, “PREDICTION OF CARDIOTOXICITY” (priority 2010, published 2011).

Each structure is given as a SMILES string.

For this data set the following is noted: assessment positive or negative; marketed/external kinase inhibitors; from public literature and internal data.
`COc1cc2ncnc(Nc3ccc(F)c(Cl)c3)c2cc1OCCCN1CCOCC1` [Iressa]: the Cardiotoxicity result was “Negative”.

On to `CNC(=O)c1cc(Oc2ccc(NC(=O)Nc3ccc(Cl)c(C(F)(F)F)c3)cc2)ccn1` [Nexavar, sorafenib], for which the Cardiotoxicity result is recorded as “Positive”. `Cc1cn(-c2cc(NC(=O)c3ccc(C)c(Nc4nccc(-c5cccnc5)n4)c3)cc(C(F)(F)F)c2)cn1` [Nilotinib]: the Cardiotoxicity result is listed as “Positive”.

Consider `Cc1nc(Nc2ncc(C(=O)Nc3c(C)cccc3Cl)s2)cc(N2CCN(CCO)CC2)n1` [Sprycel, dasatinib], for which the Cardiotoxicity result is recorded as “Positive”. In the case of `CCN(CC)CCNC(=O)c1c(C)[nH]c(/C=C2\C(=O)Nc3ccc(F)cc32)c1C` [Sutent, sunitinib], the Cardiotoxicity result is “Positive”. As to `C#Cc1cccc(Nc2ncnc3cc(OCCOC)c(OCCOC)cc23)c1` [Tarceva], the Cardiotoxicity result was “Negative”. For the compound `CS(=O)(=O)CCNCc1ccc(-c2ccc3ncnc(Nc4ccc(OCc5cccc(F)c5)c(Cl)c4)c3c2)o1` [Tykerb], the Cardiotoxicity entry is listed as “Negative”. Take `COc1cc2c(Nc3ccc(Br)cc3F)ncnc2cc1OCC1CCN(C)CC1` [Zactima]: the Cardiotoxicity entry was “Positive”.
